Experimental data published in US10513503B2, “Use of 3-deoxyanthocyanidins for treating occular diseases” (BIOPHYTIS, priority 2015, dated 2019).

Columns and labels:
[1] = system: primary cultures of retinal pigment epithelium (RPE) of adult pigs; experiment: In vitro assay of the photoprotective activity: phototoxicity induced by A2E and blue light, cell survival; assay type: cell-based, pig; settings: for viability at 20 µM / viability at 5 µM: Sus scrofa; for viability at 20 µM / Cell survival / viability at 5 µM: A2E 30 μM, blue light 470 nm 50 min, survival after 24 h, living cells vs control wells without A2E x100, A2E controls without molecule 39.7±3.7
Protocol: A cell model of phototoxicity induced by the association of a treatment by the A2E and of an illumination by blue light on primary cultures of RPE, wherein cell survival was measured, was used. This model uses primary cultures of retinal pigment epithelium of adult pigs.
This model makes it possible in particular to carry out the screening of molecules aimed at the discovery of new candidates for a treatment of the dry form of AMD. This model is closer to the “physiological” situation than the cell lines commonly used in literature, because the cells used contain protective substances provided by the diet of the animal and are therefore not in a situation of “deficiency”, and their disturbance is caused by the adding of A2E into the culture medium.
The cell cultivated in 96-well plates were treated for 48 hours with the compounds to be tested (in a 5 mM solution in the DMSO) in such a way as to obtain final concentrations of 5 or 20 μM), of which the last 19 hours in the presence of A2E (final concentration 30 μM). […] Cell survival is measured after 24 hours.
Cell survival and death are detected 24 hours after the induction of the phototoxicity by colouration of the cells with Hoechst (a nuclear marker) and with ethidium (a marker of the nuclei of dead cells). Images of each well are acquired on a fluorescent microscope equipped with a motorised stage controlled by the Metamorph software, and cell survival is quantified by a dedicated quantification program. The experiments are conducted on 96-well microplates in quadruplicate and each experiment is reproduced at least four times.
The results are expressed in the form of a ratio representing the number of living cells in the wells treated by the molecules to be tested divided by the number of living cells in the control wells (treated with the dilution medium without A2E) and multiplied by 100.

RPE cells [2] = settings: literature, in words; cited from earlier work
RPE cells [3] = settings: literature, in words; cited from earlier work; remark: listed apart in the source
[4] = system: genetically modified mouse model (ABCA4 and Rdh8 inactivated); experiment: In vivo assay of the photoprotective activity in mice (blue light exposure after intravitreal injection); settings: unilateral intravitreal injection, 100-130 μM in the vitreous, blue light 4000 lux 1 h
Description: A genetically modified mouse model developed by Maeda et al. (Invest Ophthalmol. Vis. Sci., 2009, 50, 4917-4925) was used to test the photoprotective activity of the compounds of the invention.
In this mouse model, two genes involved in the visual pigment cycle (ABCA4 and Rdh8, see FIG. 1) are inactivated, which results in an early accumulation of A2E in the eyes. This animal model is therefore representative of the human pathology.
Mice aged 7 weeks were used to carry out the unilateral intravitreal injections of solubilised diosmetinidin ([…]) in DMSO and diluted in PBS (1.2:100), in order to obtain a concentration in the vitreous of 100-130 μM. DMSO diluted in the PBS was injected into the control animals. After 24 h in the dark, the mice were subjected to an exposure to blue light (4000 lux, 1 h).

Compound	viability at 20 µM ([1]; 20 μM compound for 48 h) [%]	Cell survival ([1]; 20 μM compound for 48 h) [%]	further results
COc1ccc2ccc(-c3ccc(OC)c(OC)c3)[o+]c2c1	48.7 ± 5.5	–	–
Oc1cc(O)c2cc(O)c(-c3cc(O)c(O)c(O)c3)[o+]c2c1 [Delphinidin, delphinidin]	–	57.8 ± 5.6	Cell survival ([1]; 5 μM compound for 48 h): 40.5 ± 6.2%; effectiveness for cell survival of the RPE cells (RPE cells [2]): ineffectiveness; photoprotective effect on the RPE cells (RPE cells [3]): photoprotective effect
COc1ccc(-c2ccc3ccc(O)cc3[o+]2)c(O)c1 [Compound 1, 2′,7-dihydroxy-4′-methoxy-flavylium chloride]	89.9 ± 4.9	–	–
COc1ccc(-c2ccc3ccc(OC)cc3[o+]2)c(O)c1	39.2 ± 7.4	–	–
guibourtinidin	–	42.8 ± 6.9	–
Oc1cc(O)c2ccc(-c3ccc(O)c(O)c3)[o+]c2c1 [Compound 7, 3′,4′,5,7-tetrahydroxy-flavylium chloride (luteolinidin)]	93.6 ± 6.7	–	viability at 5 µM ([1]; 5 μM compound for 48 h): 72 ± 4.4%
COc1cc(-c2[o+]c3cc(O)cc(O)c3cc2O)cc(O)c1O [Petunidin, petunidin]	–	67.2 ± 6.9	effectiveness for cell survival of the RPE cells (RPE cells [2]): ineffectiveness
COc1ccc(-c2ccc3c(O)cc(O)cc3[o+]2)cc1O.[Cl-] [Compound 5, 3′,5,7-trihydroxy-4′-methoxy-flavylium chloride (diosmetinidin)]	90.8 ± 3.6	–	viability at 5 µM ([1]; 5 μM compound for 48 h): 84.5 ± 1.4%; electroretinograms (wave A, wave B electrical activity) ([4]; 7 days later): protective effect; survival of the photoreceptors (number of layers of photoreceptors) ([4]; FIG. 4): good survival
COc1ccc(-c2ccc3ccc(O)cc3[o+]2)cc1OC	46.1 ± 4.7	–	–
Oc1ccc(-c2[o+]c3cc(O)c(O)c(O)c3cc2O)cc1O [Quercetagetinidin, quercetagetinidin]	–	54.3 ± 6.6	–
Oc1ccc(-c2ccc3c(O)cc(O)c(O)c3[o+]2)cc1O [Gossypetinidin, gossypetinidin]	–	36.5 ± 14.4	–
COc1cc(-c2[o+]c3cc(O)cc(O)c3cc2O)cc(OC)c1O.[Cl-] [Malvidin, malvidin]	–	51.5 ± 6.9	effectiveness for cell survival of the RPE cells (RPE cells [2]): ineffectiveness; photoprotective effect on the RPE cells (RPE cells [3]): contrary
COc1ccc(-c2ccc3ccc(O)cc3[o+]2)cc1O [Compound 3, 3′,7-dihydroxy-4′-methoxy-flavylium chloride]	77 ± 2.7	–	–
Oc1ccc2cc(O)c(-c3ccc(O)c(O)c3)[o+]c2c1 [Fisetinidin, fisetinidin]	–	39.3 ± 3.2	–
Oc1cc(O)c2ccc(-c3cc(O)c(O)c(O)c3)[o+]c2c1 [Compound 6, 3′,4′,5′,5,7-pentadroxy-flavylium chloride (tricetinidin)]	99.3 ± 3.3	–	viability at 5 µM ([1]; 5 μM compound for 48 h): 74.9 ± 4.2%
COc1ccc(-c2ccc3ccc(O)cc3[o+]2)c(O)c1O [Compound 2, 2′,3′,7-trihydroxy-4′-methoxy-flavylium chloride]	86.7 ± 2.3	–	–
Oc1ccc(-c2ccc3c(O)cc(O)cc3[o+]2)cc1 [Compound 4, 4′,5,7-trihydroxy-flavylium chloride (apigeninidin)]	89.5 ± 3.5	–	viability at 5 µM ([1]; 5 μM compound for 48 h): 71 ± 3.6%
Oc1cc(O)c2cc(O)c(-c3ccc(O)c(O)c3)[o+]c2c1 [Cyanidin, cyanidin]	–	92.9 ± 1.9	Cell survival ([1]; 5 μM compound for 48 h): 56.4 ± 8.8%; photoprotector effect ([1]; at 20 μM, in words): substantial photoprotector effect; effectiveness of the photoprotection ([1]; at a lower concentration (5 μM), in words): substantially reduced; effectiveness for cell survival of the RPE cells (RPE cells [2]): ineffectiveness; photoprotective effect on the RPE cells (RPE cells [3]): photoprotective effect
